For orientation: IC50 means the concentration that inhibits the measured activity by half.

One test addresses T1, human EP4 (EP4R) (Homo sapiens, UniProt P35408).
T1 construct: Cayman Chemical (Human EP4 Reporter Assay Kit)
The test can be described thus: EP4 antagonist assay (HEK-293 CNG membrane potential cAMP assay / 293T SEAP reporter assay, PGE2-stimulated). To be noted: EP4 antagonist activity; concentration for inhibition of signal compared to DMSO. The format is cell-based. The text has this: 1. The HEK-293 CNG (Cyclic Nucleotide Gated) cell line expressing a modified CNG channel that leads to cell membrane depolarization in response to elevated intracellular cAMP levels, which can be measured using a fluorescent membrane potential dye, was engineered to express human EP2 (PTGER2) or EP4 (EP4R). The resulting cell line ACTOne™ PTGER2 or ACTOne™ EP4R as well as the fluorescent membrane potential dye were purchased from eEnzyme (Gaithersburg, MD, US) and used in this assay. Briefly, cells were plated at 1.2×10^4 cells/well in 20 μL DMEM supplemented with 2% Fetal Bovine Serum (FBS, VWR International), 1x Penicillin/Streptomycin (GenClone), 0.2 μg/mL puromycin (InvivoGen) and 50 μg/mL G418 (InvivoGen) on a 384 well plate (Greiner). The next day, cells were dye-loaded with 20 μL/well of 1x Dye-loading solution (eENZYME) following the manufacturer's instruction. After 2 hours of incubation at room temperature (RT) in the dark, a pre-read was made to obtain the background signals using CLARIOstar plate reader (BMG LABTECH, Germany) with the following filter settings: excitation=530/20 nm, emission=590/20 nm. Next, a serial dilution of compound (plus a DMSO control) were added to the plate (5 μL/well) and the reaction was incubated at RT for 15 min before adding 5 μL of PGE2 to every well for a final concentration of 5 nM. All wells were duplicated. The plate was then further incubated at RT for 30 min prior to a final read with the same machine settings. Background-subtracted signals were used to calculate IC50 values.
2. Human EP2 and EP4 Reporter Assay Kits were purchased from Cayman Chemical (Ann Arbor, MI, USA). The assay was performed following the provided User Manual. Briefly, a reverse transfection was performed by seeding 6.0×10^4 of 293T cells (ATCC) to each well of the provided Strip Plate coated with a proprietary transfection complex containing DNA constructs for expressing human EP2 or EP4 and a cAMP response element regulated secreted alkaline phosphatase (SEAP) reporter, in 200 μL DMEM supplemented with 2% FBS and incubated for 20-24 hours at 37° C. with 5% CO2. After the incubation, the culture medium was carefully removed, and the cells were replenished with 150 μL pre-warmed serum-free medium. PGE2 and test compounds were prepared together at 4x the desired final concentration, and 50 μL was added to each assigned well with the final concentration of 13 nM and 2 nM PGE2 for EP2 and EP4 assay, respectively. After 6-8 hours of incubation, 10 μL media from each well was transferred to corresponding well of a new plate, which was then sealed and incubated at 65° C. for 30 min. The plate was then cooled down to RT and 50 μL SEAP substrate was added to each well. Luminescence signal was measured using a CLARIOstar plate reader.
The IC50 value was determined as the concentration for […] inhibition of signal compared to DMSO (A: IC50≤100 nM; B: IC50 between 100 nM and 1,000 nM; C: IC50≥1,000 nM).

The target in the next test is T2, human EP2 (PTGER2) (Homo sapiens, UniProt P43116).
T2 construct: Cayman Chemical (Human EP2 Reporter Assay Kit)
T2 sequence (P43116 whole entry): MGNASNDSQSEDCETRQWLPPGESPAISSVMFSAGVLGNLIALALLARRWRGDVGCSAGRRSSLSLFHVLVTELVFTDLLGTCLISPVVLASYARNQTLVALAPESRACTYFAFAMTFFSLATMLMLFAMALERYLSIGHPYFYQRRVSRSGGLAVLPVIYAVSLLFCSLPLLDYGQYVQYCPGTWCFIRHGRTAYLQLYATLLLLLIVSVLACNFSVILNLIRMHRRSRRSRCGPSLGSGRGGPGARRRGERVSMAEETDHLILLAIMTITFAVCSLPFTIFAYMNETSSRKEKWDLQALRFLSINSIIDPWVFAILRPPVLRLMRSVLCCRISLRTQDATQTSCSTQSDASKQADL
Put plainly: EP2 antagonist assay (HEK-293 CNG membrane potential cAMP assay / 293T SEAP reporter assay, PGE2-stimulated). The format is cell-based. To be noted: EP2 antagonist activity; concentration for 50% inhibition of signal compared to DMSO. In a few lines: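 Two formats. In a CRE-SEAP reporter assay, reverse-transfected 293T cells received compound with PGE2 (13 nM final) for 6-8 h, then luminescence was read. In the ACTOne CNG format, HEK-293 cells were preincubated with compound for 15 min at RT, stimulated with 5 nM PGE2 for 30 min, and read by membrane-potential dye fluorescence. IC50 was taken versus DMSO.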

T1 sequence (P35408 whole entry): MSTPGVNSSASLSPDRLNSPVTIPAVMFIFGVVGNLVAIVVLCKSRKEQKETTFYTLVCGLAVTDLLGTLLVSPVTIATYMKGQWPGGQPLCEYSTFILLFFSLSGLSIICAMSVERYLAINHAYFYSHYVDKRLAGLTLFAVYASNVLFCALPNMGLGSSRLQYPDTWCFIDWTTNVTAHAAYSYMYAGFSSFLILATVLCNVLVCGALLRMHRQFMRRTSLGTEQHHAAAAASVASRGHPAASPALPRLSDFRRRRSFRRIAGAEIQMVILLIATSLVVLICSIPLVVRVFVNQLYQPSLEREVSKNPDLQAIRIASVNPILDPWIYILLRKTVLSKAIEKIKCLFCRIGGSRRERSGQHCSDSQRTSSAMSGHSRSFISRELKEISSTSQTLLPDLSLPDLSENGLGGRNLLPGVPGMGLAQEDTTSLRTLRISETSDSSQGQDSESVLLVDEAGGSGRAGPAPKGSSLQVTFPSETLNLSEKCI

`C[C@H](NC(=O)c1cc(-c2ccc(F)cc2)cc2nnn(Cc3ccc(C(F)(F)F)cc3)c12)c1ccc(C(=O)O)cc1` [Example 180, (S)-4-(1-(5-(4-fluorophenyl)-1-(4-(trifluoromethyl)benzyl)-1H-benzo[d][1,2,3]triazole-7-carboxamido)ethyl)benzoic acid]: the IC50 on human EP4 (EP4R) was ≤ 100 nM; at human EP2 (PTGER2) it was < 100 nM.
`O=C(O)c1ccc(CNC(=O)c2cc(-c3ccccc3)cc3cnn(Cc4ccc(-c5ccc(F)cc5)cc4)c23)cc1` [Example 184, 4-((1-((4′-fluoro-[1,1′-biphenyl]-4-yl)methyl)-5-phenyl-1H-indazole-7-carboxamido)methyl)benzoic acid]: the results for the IC50 at human EP4 (EP4R) and against human EP2 (PTGER2) were ≤ 100 nM and < 100 nM, respectively.
Taken in the same sequence, the figures for `O=C(O)c1ccc(CNC(=O)c2cc(-c3ccc(F)c(F)c3)cc3ccn(Cc4ccc(-c5ccccc5)cc4)c23)cc1` [Example 188, 4-((1-([1,1′-biphenyl]-4-ylmethyl)-5-(3,4-difluorophenyl)-1H-indole-7-carboxamido)methyl)benzoic acid] were ≤ 100 nM and < 100 nM.
For `C[C@H](NC(=O)c1cc(-c2ccccc2)cc2nnn(Cc3ccc4ccccc4c3)c12)c1ccc(C(=O)O)cc1` [Example 189] the same measures were ≤ 100 nM and < 100 nM.
For `O=C(O)c1ccc(CNC(=O)c2cc(-c3ccccc3)cc3cnn(Cc4ccc(-c5ccccc5)cc4)c23)cc1` [Example 190, 4-((1-([1,1′-biphenyl]-4-ylmethyl)-5-phenyl-1H-indazole-7-carboxamido)methyl)benzoic acid] the same measures were ≤ 100 nM and < 100 nM.
Consider `O=C(O)c1ccc(CNC(=O)c2cc(-c3ccc(F)cc3)cc3cnn(Cc4ccc(-c5ccccc5)cc4)c23)cc1` [Example 191, 4-((1-([1,1′-biphenyl]-4-ylmethyl)-5-(4-fluorophenyl)-1H-indazole-7-carboxamido)methyl)benzoic acid], for which the IC50 against human EP4 (EP4R) was ≤ 100 nM; against human EP2 (PTGER2), < 100 nM.
For `O=C(NC[C@H]1CC[C@H](C(=O)O)CC1)c1cc(-c2ccccc2)cc2cnn(Cc3cccc(C(F)(F)F)c3)c12` [Example 221, (1r,4r)-4-((5-phenyl-1-(3-(trifluoromethyl)benzyl)-1H-indazole-7-carboxamido)methyl)cyclohexane-1-carboxylic acid] the same measures were ≤ 100 nM and < 100 nM.
For the molecule `C[C@H](NC(=O)c1cc(-c2ccccc2)cc2cnn(Cc3cccc(C(F)(F)F)c3)c12)[C@H]1CC[C@H](C(=O)O)CC1` [Example 223, (1S,4r)-4-((S)-1-(5-phenyl-1-(3-(trifluoromethyl)benzyl)-1H-indazole-7-carboxamido)ethyl)cyclohexane-1-carboxylic acid], the IC50 against human EP4 (EP4R) was ≤ 100 nM; against human EP2 (PTGER2) it was ≥ 1000 nM.
Turning to `C[C@@H](NC(=O)c1cc(-c2ccccc2)cc2cnn(Cc3cccc(C(F)(F)F)c3)c12)[C@H]1CC[C@H](C(=O)O)CC1` [Example 224, (1R,4r)-4-((R)-1-(5-phenyl-1-(3-(trifluoromethyl)benzyl)-1H-indazole-7-carboxamido)ethyl)cyclohexane-1-carboxylic acid], the concentration for half-maximal inhibition (IC50) is ≤ 100 nM at human EP4 (EP4R) and < 100 nM against human EP2 (PTGER2).

The record behind these values is patent US20250179017A1 (GUANGDONG NEWOPP BIOPHARMACEUTICALS CO., LTD., priority 2022, published 2025).
